± gives the expanded uncertainty stated by the source.
Test: xn = mol fraction of the nth substance listed
Details: 101 kPa, Liquid

CCO [ethanol] + O
Details	mass density [kg/m3]	viscosity [mPa·s]
268.1 K, x2 = 0.1	824.9 ± 3.8	2.307 ± 0.11
268.1 K, x2 = 0.2	838.2 ± 3.9	2.805 ± 0.13
268.1 K, x2 = 0.3	852.2 ± 4	3.345 ± 0.15
268.1 K, x2 = 0.4	867.7 ± 4.1	3.991 ± 0.18
268.1 K, x2 = 0.5	886.6 ± 4.2	4.829 ± 0.22
268.1 K, x2 = 0.6	908.1 ± 4.3	5.931 ± 0.26
268.1 K, x2 = 0.7	931.6 ± 4.4	7.172 ± 0.3
268.1 K, x2 = 0.8	951 ± 4.5	7.549 ± 0.32
268.1 K, x2 = 0.9	977.3 ± 4.6	6.025 ± 0.26
273.1 K, x2 = 0.1	820.3 ± 3.6	2.059 ± 0.096
273.1 K, x2 = 0.2	833.7 ± 3.7	2.491 ± 0.12
273.1 K, x2 = 0.3	847.7 ± 3.8	2.938 ± 0.14
273.1 K, x2 = 0.4	863.4 ± 3.9	3.451 ± 0.16
273.1 K, x2 = 0.5	882.1 ± 3.9	4.123 ± 0.19
273.1 K, x2 = 0.6	903.5 ± 4.1	4.978 ± 0.23
273.1 K, x2 = 0.7	927.1 ± 4.2	5.947 ± 0.26
273.1 K, x2 = 0.8	948 ± 4.3	6.169 ± 0.27
273.1 K, x2 = 0.9	975.6 ± 4.4	4.997 ± 0.23
278.1 K, x2 = 0.1	815.9 ± 3.4	1.837 ± 0.087
278.1 K, x2 = 0.2	829 ± 3.5	2.21 ± 0.1
278.1 K, x2 = 0.3	842.9 ± 3.6	2.579 ± 0.12
278.1 K, x2 = 0.4	858.8 ± 3.6	2.98 ± 0.14
278.1 K, x2 = 0.5	877.7 ± 3.7	3.518 ± 0.16
278.1 K, x2 = 0.6	899.3 ± 3.8	4.176 ± 0.19
278.1 K, x2 = 0.7	922.7 ± 4	4.933 ± 0.22
278.1 K, x2 = 0.8	945 ± 4.1	5.037 ± 0.23
278.1 K, x2 = 0.9	973.2 ± 4.2	4.089 ± 0.19
283.1 K, x2 = 0.1	811.4 ± 3.2	1.639 ± 0.078
283.1 K, x2 = 0.2	824.7 ± 3.3	1.959 ± 0.092
283.1 K, x2 = 0.3	838.5 ± 3.4	2.26 ± 0.11
283.1 K, x2 = 0.4	854.1 ± 3.4	2.57 ± 0.12
283.1 K, x2 = 0.5	872.8 ± 3.5	2.995 ± 0.14
283.1 K, x2 = 0.6	894.6 ± 3.6	3.499 ± 0.16
283.1 K, x2 = 0.7	918.7 ± 3.8	4.093 ± 0.19
283.1 K, x2 = 0.8	941.4 ± 3.9	4.102 ± 0.19
283.1 K, x2 = 0.9	970.8 ± 4	3.34 ± 0.15
288.15 K, x2 = 0.1	806.9 ± 3	1.51 ± 0.072
288.15 K, x2 = 0.2	820.1 ± 3.1	1.721 ± 0.081
288.15 K, x2 = 0.3	833.9 ± 3.1	1.98 ± 0.093
288.15 K, x2 = 0.4	849.5 ± 3.2	2.212 ± 0.1
288.15 K, x2 = 0.5	868.5 ± 3.3	2.539 ± 0.12
288.15 K, x2 = 0.6	889.6 ± 3.4	2.922 ± 0.13
288.15 K, x2 = 0.7	914.5 ± 3.6	3.372 ± 0.15
288.15 K, x2 = 0.8	938 ± 3.7	3.433 ± 0.16
288.15 K, x2 = 0.9	967.3 ± 3.8	2.706 ± 0.12
293.15 K, x2 = 0.1	802.1 ± 2.8	1.355 ± 0.065
293.15 K, x2 = 0.2	815.6 ± 2.9	1.515 ± 0.072
293.15 K, x2 = 0.3	829.4 ± 2.9	1.715 ± 0.081
293.15 K, x2 = 0.4	845 ± 3	1.901 ± 0.089
293.15 K, x2 = 0.5	863.8 ± 3.1	2.153 ± 0.1
293.15 K, x2 = 0.6	885.1 ± 3.2	2.463 ± 0.11
293.15 K, x2 = 0.7	909.9 ± 3.4	2.842 ± 0.13
293.15 K, x2 = 0.8	934.6 ± 3.5	2.841 ± 0.13
293.15 K, x2 = 0.9	963.7 ± 3.6	2.268 ± 0.11
298.15 K, x2 = 0.1	797.7 ± 3	1.249 ± 0.06
298.15 K, x2 = 0.2	811 ± 3	1.353 ± 0.065
298.15 K, x2 = 0.3	825.1 ± 3.1	1.513 ± 0.072
298.15 K, x2 = 0.4	840.6 ± 3.2	1.651 ± 0.078
298.15 K, x2 = 0.5	859.2 ± 3.3	1.84 ± 0.09
298.15 K, x2 = 0.6	880.6 ± 3.4	2.089 ± 0.098
298.15 K, x2 = 0.7	905.3 ± 3.5	2.35 ± 0.11
298.15 K, x2 = 0.8	931.3 ± 3.7	2.45 ± 0.11
298.15 K, x2 = 0.9	960.3 ± 3.8	1.92 ± 0.09
303.15 K, x2 = 0.1	793 ± 3.1	1.156 ± 0.056
303.15 K, x2 = 0.2	806 ± 3.2	1.218 ± 0.059
303.15 K, x2 = 0.3	820.6 ± 3.3	1.356 ± 0.065
303.15 K, x2 = 0.4	836.1 ± 3.4	1.446 ± 0.069
303.15 K, x2 = 0.5	854.8 ± 3.4	1.598 ± 0.076
303.15 K, x2 = 0.6	876.1 ± 3.6	1.812 ± 0.085
303.15 K, x2 = 0.7	901 ± 3.7	2.04 ± 0.095
303.15 K, x2 = 0.8	927.6 ± 3.8	2.101 ± 0.098
303.15 K, x2 = 0.9	956.2 ± 4	1.656 ± 0.078
308.15 K, x2 = 0.1	788.2 ± 3.3	1.067 ± 0.052
308.15 K, x2 = 0.2	801.4 ± 3.4	1.11 ± 0.054
308.15 K, x2 = 0.3	816 ± 3.4	1.215 ± 0.059
308.15 K, x2 = 0.4	831.4 ± 3.5	1.296 ± 0.063
308.15 K, x2 = 0.5	850.1 ± 3.6	1.407 ± 0.067
308.15 K, x2 = 0.6	871.4 ± 3.7	1.582 ± 0.075
308.15 K, x2 = 0.7	896.5 ± 3.8	1.78 ± 0.084
308.15 K, x2 = 0.8	923.8 ± 4	1.772 ± 0.084
308.15 K, x2 = 0.9	952.7 ± 4.1	1.448 ± 0.069
313.15 K, x2 = 0.1	783.6 ± 3.5	0.92 ± 0.046
313.15 K, x2 = 0.2	796.8 ± 3.5	1.004 ± 0.05
313.15 K, x2 = 0.3	811.1 ± 3.6	1.096 ± 0.054
313.15 K, x2 = 0.4	826.9 ± 3.7	1.149 ± 0.056
313.15 K, x2 = 0.5	845.2 ± 3.8	1.27 ± 0.06
313.15 K, x2 = 0.6	866.8 ± 3.9	1.43 ± 0.068
313.15 K, x2 = 0.7	892 ± 4	1.56 ± 0.074
313.15 K, x2 = 0.8	919.5 ± 4.2	1.557 ± 0.074
313.15 K, x2 = 0.9	949 ± 4.3	1.271 ± 0.061
318.15 K, x2 = 0.1	779 ± 3.6	0.86 ± 0.043
318.15 K, x2 = 0.2	792.2 ± 3.7	0.925 ± 0.046
318.15 K, x2 = 0.3	806.6 ± 3.8	0.998 ± 0.049
318.15 K, x2 = 0.4	822.4 ± 3.8	1.039 ± 0.051
318.15 K, x2 = 0.5	840.5 ± 3.9	1.14 ± 0.06
318.15 K, x2 = 0.6	862.1 ± 4	1.27 ± 0.061
318.15 K, x2 = 0.7	887.4 ± 4.2	1.371 ± 0.066
318.15 K, x2 = 0.8	915.5 ± 4.3	1.369 ± 0.066
318.15 K, x2 = 0.9	945.5 ± 4.5	1.121 ± 0.055
323.15 K, x2 = 0.1	774.3 ± 3.8	0.76 ± 0.039
323.15 K, x2 = 0.2	787.5 ± 3.8	0.839 ± 0.043
323.15 K, x2 = 0.3	801.9 ± 3.9	0.902 ± 0.045
323.15 K, x2 = 0.4	817.7 ± 4	0.932 ± 0.047
323.15 K, x2 = 0.5	835.8 ± 4.1	1.02 ± 0.05
323.15 K, x2 = 0.6	857.3 ± 4.2	1.14 ± 0.056
323.15 K, x2 = 0.7	883 ± 4.3	1.17 ± 0.057
323.15 K, x2 = 0.8	911.2 ± 4.5	1.202 ± 0.058
323.15 K, x2 = 0.9	942 ± 4.6	0.975 ± 0.048
